According to patent US20170008888A1 (KYORIN PHARMACEUTICAL CO., LTD., priority 2014, published 2017):

Tests used:
ACK = biological target: T1, ACK (Homo sapiens, UniProt Q07912); assay: Probe-based (AX9989) kinase profiling in Jurkat lysate: ACK; type: binding; settings: read-out: Kinase inhibition % at indicated screening concentration: ACK; for inhibition at 1 µM: screening concentration 1.0 μM; for inhibition at 0.1 µM: screening concentration 0.1 μM
T1 construct: screened for activity against several kinases in Jurkat cells; endogenous in cells; host or cells: Jurkat cell lysate
T1 sequence (Q07912 whole entry): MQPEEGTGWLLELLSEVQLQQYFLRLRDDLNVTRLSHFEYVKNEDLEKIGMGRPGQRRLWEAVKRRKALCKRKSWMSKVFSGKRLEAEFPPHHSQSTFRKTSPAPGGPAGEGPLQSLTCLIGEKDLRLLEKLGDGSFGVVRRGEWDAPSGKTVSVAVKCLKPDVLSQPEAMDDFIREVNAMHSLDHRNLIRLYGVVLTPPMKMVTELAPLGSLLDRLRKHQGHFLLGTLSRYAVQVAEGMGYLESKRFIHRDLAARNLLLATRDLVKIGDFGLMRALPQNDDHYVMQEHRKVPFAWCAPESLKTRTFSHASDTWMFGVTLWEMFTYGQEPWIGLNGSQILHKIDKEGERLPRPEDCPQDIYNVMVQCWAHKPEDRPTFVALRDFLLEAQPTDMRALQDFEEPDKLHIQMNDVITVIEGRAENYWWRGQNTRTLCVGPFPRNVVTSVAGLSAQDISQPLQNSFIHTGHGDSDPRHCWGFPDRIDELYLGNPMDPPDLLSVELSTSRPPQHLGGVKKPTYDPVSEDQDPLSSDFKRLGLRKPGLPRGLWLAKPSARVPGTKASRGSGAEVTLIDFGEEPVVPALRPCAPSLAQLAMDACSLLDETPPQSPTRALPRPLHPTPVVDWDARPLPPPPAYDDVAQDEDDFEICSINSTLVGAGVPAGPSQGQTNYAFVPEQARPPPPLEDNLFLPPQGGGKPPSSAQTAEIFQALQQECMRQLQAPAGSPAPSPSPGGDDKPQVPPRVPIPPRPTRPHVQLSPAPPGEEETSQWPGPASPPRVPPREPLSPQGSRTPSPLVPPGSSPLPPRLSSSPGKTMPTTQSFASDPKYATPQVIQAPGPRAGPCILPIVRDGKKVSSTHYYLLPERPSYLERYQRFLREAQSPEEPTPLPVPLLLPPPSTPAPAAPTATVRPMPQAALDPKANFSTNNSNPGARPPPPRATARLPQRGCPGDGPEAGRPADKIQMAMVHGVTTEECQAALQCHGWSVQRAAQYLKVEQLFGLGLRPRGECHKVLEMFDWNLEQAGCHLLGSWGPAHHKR
In short: (§1)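 Percent inhibition was derived from reduced LC/MS fragment intensities of probe-labeled peptides relative to compound-free controls. Before labeling with 5 μM AX9989, Mn2+-supplemented (20 mM) Jurkat lysate was exposed to compound for 15 min at room temperature.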

[1] = biological target: T2, BRD4 bromodomain domain I [BRD4(1)] (Homo sapiens, UniProt O60885); assay: BRD4 bromodomain domain 1 inhibition assay (TR-FRET); type: binding; settings: screening concentration 10 μM
T2 construct: BRD4 bromodomain domain I [BRD4(1)]; purchased Cayman Chemicals
In short: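 0.5% DMSO, in triplicate, using Cayman BRD4(1) TR-FRET protocol with slight modification. 670/620 nm ratio normalized to 10 μM JQ1, with DMSO control set as 0% inhibition.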

ABL or ARG = assay: Probe-based (AX9989) kinase profiling in Jurkat lysate: ABL or ARG; type: binding
In short: as §1

ERK5 = biological target: T3, ERK5 (Homo sapiens, UniProt Q13164); assay: Probe-based (AX9989 acyl phosphate ATP probe) kinase profiling in Jurkat lysate: ERK5; type: binding; settings: for IC50: calculated from percent inhibition of AX9989 labeling and the screening concentration, Jurkat lysate; for inhibition at 1 µM: screening concentration 1.0 μM; for inhibition at 1 µM / inhibition at 0.1 µM: read-out: Kinase inhibition % at indicated screening concentration: ERK5; for inhibition at 0.1 µM: screening concentration 0.1 μM
T3 construct: screened for activity against several kinases in Jurkat cells; endogenous in cells; host or cells: Jurkat cell lysate
T3 sequence (Q13164 whole entry): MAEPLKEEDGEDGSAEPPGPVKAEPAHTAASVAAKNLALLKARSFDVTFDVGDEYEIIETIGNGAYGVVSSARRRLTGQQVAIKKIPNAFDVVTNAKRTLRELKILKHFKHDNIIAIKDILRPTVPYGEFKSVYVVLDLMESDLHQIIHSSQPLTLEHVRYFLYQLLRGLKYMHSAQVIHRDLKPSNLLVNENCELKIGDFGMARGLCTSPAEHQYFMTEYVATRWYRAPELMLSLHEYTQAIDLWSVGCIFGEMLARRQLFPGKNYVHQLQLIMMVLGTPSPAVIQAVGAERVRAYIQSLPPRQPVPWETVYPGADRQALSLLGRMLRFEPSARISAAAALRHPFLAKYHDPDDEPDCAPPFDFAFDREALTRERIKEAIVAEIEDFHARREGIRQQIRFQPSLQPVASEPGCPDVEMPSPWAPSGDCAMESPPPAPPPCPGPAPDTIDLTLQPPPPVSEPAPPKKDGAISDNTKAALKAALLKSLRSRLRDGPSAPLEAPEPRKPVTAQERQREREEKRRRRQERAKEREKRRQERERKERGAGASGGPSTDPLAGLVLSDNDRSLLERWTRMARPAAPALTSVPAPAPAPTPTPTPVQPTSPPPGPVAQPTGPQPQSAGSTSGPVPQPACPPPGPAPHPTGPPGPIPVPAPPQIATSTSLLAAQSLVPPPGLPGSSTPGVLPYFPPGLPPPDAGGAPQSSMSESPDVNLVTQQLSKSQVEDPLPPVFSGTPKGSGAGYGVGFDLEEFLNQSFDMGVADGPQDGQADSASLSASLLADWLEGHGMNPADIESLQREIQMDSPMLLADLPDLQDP
In short: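 ERK5 IC50 values came from percent inhibition at the screening concentration, measured as loss of LC/MS signal of probe-labelled active-site peptides. Compound was added for 15 min at room temperature to Jurkat lysate (5 mg/ml, 20 mM MnCl2) before labelling with AX9989 ATP acyl phosphate probe at 5 μM.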

AMPKa1 or AMPKa2 = assay: Probe-based (AX9989) kinase profiling in Jurkat lysate: AMPKa1 or AMPKa2; type: binding
In short: as §1

JAK1 = biological target: T4, JAK1 (Homo sapiens, UniProt P23458); assay: Probe-based (AX9989) kinase profiling in Jurkat lysate: JAK1; type: binding; settings: read-out: Kinase inhibition % at indicated screening concentration: JAK1; for inhibition at 1 µM: screening concentration 1.0 μM; for inhibition at 0.1 µM: screening concentration 0.1 μM
T4 construct: screened for activity against several kinases in Jurkat cells; endogenous in cells; host or cells: Jurkat cell lysate
T4 sequence (P23458 whole entry): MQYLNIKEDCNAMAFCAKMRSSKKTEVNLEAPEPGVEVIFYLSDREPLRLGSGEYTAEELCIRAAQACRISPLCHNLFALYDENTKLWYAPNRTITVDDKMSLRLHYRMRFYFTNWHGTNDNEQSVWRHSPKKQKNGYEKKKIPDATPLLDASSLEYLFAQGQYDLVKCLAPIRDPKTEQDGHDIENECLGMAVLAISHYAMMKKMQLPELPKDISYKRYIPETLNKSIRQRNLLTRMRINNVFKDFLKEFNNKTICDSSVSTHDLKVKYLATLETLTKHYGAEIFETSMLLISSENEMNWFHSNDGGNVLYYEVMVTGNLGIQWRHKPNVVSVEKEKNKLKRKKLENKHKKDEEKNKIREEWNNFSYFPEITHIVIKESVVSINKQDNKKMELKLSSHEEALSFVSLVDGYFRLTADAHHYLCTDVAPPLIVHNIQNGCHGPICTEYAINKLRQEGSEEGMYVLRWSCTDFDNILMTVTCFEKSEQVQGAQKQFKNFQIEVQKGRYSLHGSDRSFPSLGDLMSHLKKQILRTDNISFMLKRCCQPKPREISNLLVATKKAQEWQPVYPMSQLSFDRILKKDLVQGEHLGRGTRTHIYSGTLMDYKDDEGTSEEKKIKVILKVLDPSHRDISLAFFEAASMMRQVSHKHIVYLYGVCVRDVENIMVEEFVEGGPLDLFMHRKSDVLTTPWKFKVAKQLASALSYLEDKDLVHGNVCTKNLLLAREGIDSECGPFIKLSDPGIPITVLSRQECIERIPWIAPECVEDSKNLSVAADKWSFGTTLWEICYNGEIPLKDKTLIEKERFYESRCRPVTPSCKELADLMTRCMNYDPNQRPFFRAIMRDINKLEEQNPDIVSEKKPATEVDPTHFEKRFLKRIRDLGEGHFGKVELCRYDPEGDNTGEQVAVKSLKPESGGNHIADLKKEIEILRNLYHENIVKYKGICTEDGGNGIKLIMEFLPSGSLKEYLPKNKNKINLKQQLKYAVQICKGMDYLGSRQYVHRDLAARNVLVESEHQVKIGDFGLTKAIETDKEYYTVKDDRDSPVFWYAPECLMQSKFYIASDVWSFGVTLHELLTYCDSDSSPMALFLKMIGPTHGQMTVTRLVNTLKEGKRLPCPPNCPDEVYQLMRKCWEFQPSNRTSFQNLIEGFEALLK
In short: as §1

human PBMCs = assay: Human PBMC TNF-α response to endotoxin (ELISA); type: cell-based; settings: 0.1 μg/ml LPS 16 h, read-out: EC50 for the inhibition of the human PBMC TNF-α response to endotoxin, ave. ± S.D.
In short: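 PBMCs at 2e6 cells/ml in RPMI 1640 with 10% charcoal-dextran-treated FBS were pre-treated 1 h at 37 °C with compound (4-point 1:5 dilution from 10 μM). Stimulation with 0.1 μg/ml E. coli 0111:B4 LPS for 16 h; TNF-α measured by ELISA (A450) in 25-fold diluted supernatant.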

Row | inhibition at 1 µM (ACK) [%] | inhibition at 10 µM [1] [%] | Kinase inhibition % at indicated screening concentration: ABL or ARG (ABL or ARG; screening concentration 1.0 μM) | IC50 (ERK5) [nM] | inhibition at 1 µM (ERK5) [%] | Kinase inhibition % at indicated screening concentration: AMPKa1 or AMPKa2 (AMPKa1 or AMPKa2; screening concentration 1.0 μM) | inhibition at 1 µM (JAK1) [%] | inhibition at 0.1 µM (ACK) [%] | Kinase inhibition % at indicated screening concentration: ABL or ARG (ABL or ARG; screening concentration 0.1 μM) | inhibition at 0.1 µM (ERK5) [%] | Kinase inhibition % at indicated screening concentration: AMPKa1 or AMPKa2 (AMPKa1 or AMPKa2; screening concentration 0.1 μM) | inhibition at 0.1 µM (JAK1) [%] | Compound | EC50 (human PBMCs) [nM]
1 | ≤ 35 | < 70 | E (E is ≦35%) | 101 to 500 | 50 to 75 | E (E is ≦35%) | ≤ 35 | – | – | – | – | – | CCOc1cc(C(=O)NC2CCOCC2)ccc1Nc1cc2c(cn1)N(C)C(=O)c1ccccc1N2C [Compound 80] | 1290
2 | – | > 85 | – | ≤ 50 | – | – | – | ≤ 35 | E (E is ≦35%) | 75 to 90 | E (E is ≦35%) | ≤ 35 | CCOc1cc(C(=O)N2CCNC[C@H]2C)ccc1Nc1cc2c(cn1)N(C)C(=O)c1ccccc1N2C [Compound 82] | 1540
3 | ≤ 35 | < 70 | E (E is ≦35%) | 101 to 500 | 75 to 90 | E (E is ≦35%) | ≤ 35 | – | – | – | – | – | CCOc1cc(C(=O)NCCOC)ccc1Nc1cc2c(cn1)N(C)C(=O)c1ccccc1N2C [Compound 83] | 1480
4 | ≤ 35 | < 70 | E (E is ≦35%) | 50 to 100 | > 90 | E (E is ≦35%) | ≤ 35 | – | – | – | – | – | CCOc1cc(C(=O)NCCn2ccnc2)ccc1Nc1cc2c(cn1)N(C)C(=O)c1ccccc1N2C [Compound 84] | 1180
5 | – | > 85 | – | ≤ 50 | – | – | – | ≤ 35 | E (E is ≦35%) | > 90 | E (E is ≦35%) | ≤ 35 | CCOc1cc(C(=O)N(C)CCN(C)C)ccc1Nc1cc2c(cn1)N(C)C(=O)c1ccccc1N2C [Compound 88] | 600
6 | – | > 85 | – | ≤ 50 | – | – | – | ≤ 35 | E (E is ≦35%) | > 90 | E (E is ≦35%) | ≤ 35 | CCOc1cc(C(=O)N2CCC(N3CCCC3)CC2)ccc1Nc1cc2c(cn1)N(C)C(=O)c1occc1N2C [Compound 91, 6-((2-Ethoxy-4-(4-(pyrrolidin-1-yl)piperidine-1-carbonyl)phenyl)amino)-4,9-dimethyl-4H-furo[3,2-e]pyrido[3,4-b][1,4]diazepin-10(9H)-one] | 710
7 | ≤ 35 | > 85 | E (E is ≦35%) | 50 to 100 | > 90 | E (E is ≦35%) | ≤ 35 | – | – | – | – | – | CCOc1cc(C(=O)N2CCCC(O)C2)ccc1Nc1cc2c(cn1)N(C)C(=O)c1ccccc1N2C (centres unmarked) [Compound 93] | 760
8 | – | 70 to 85 | – | ≤ 50 | – | – | – | ≤ 35 | E (E is ≦35%) | 75 to 90 | E (E is ≦35%) | ≤ 35 | CCOc1cc(C(=O)N2CCN(C(C)(C)C)CC2)ccc1Nc1cc2c(cn1)N(C)C(=O)c1ccccc1N2C [Compound 94] | 980

Continued, compound first:

Row | Compound | inhibition at 1 µM (ACK) [%] | inhibition at 10 µM [1] [%] | Kinase inhibition % at indicated screening concentration: ABL or ARG (ABL or ARG; screening concentration 1.0 μM) | IC50 (ERK5) [nM] | inhibition at 1 µM (ERK5) [%] | Kinase inhibition % at indicated screening concentration: AMPKa1 or AMPKa2 (AMPKa1 or AMPKa2; screening concentration 1.0 μM) | inhibition at 1 µM (JAK1) [%] | inhibition at 0.1 µM (ACK) [%] | Kinase inhibition % at indicated screening concentration: ABL or ARG (ABL or ARG; screening concentration 0.1 μM) | inhibition at 0.1 µM (ERK5) [%] | Kinase inhibition % at indicated screening concentration: AMPKa1 or AMPKa2 (AMPKa1 or AMPKa2; screening concentration 0.1 μM) | inhibition at 0.1 µM (JAK1) [%] | EC50 (human PBMCs) [nM]
9 | CN1C(=O)c2ccccc2N(C)c2cc(NC3CCC(C(=O)NC4CCOCC4)CC3)ncc21 (centres unmarked) [Compound 64] | ≤ 35 | < 70 | E (E is ≦35%) | 101 to 500 | 75 to 90 | E (E is ≦35%) | ≤ 35 | – | – | – | – | – | 3170
10 | CCOc1cc(C(=O)N2CCC(N3CCN(C)CC3)CC2)ccc1Nc1cc2c(cn1)N(C)C(=O)c1occc1N2C [Compound 65] | – | > 85 | – | ≤ 50 | – | – | – | ≤ 35 | E (E is ≦35%) | > 90 | E (E is ≦35%) | ≤ 35 | 460
11 | CCOc1cc(C(=O)NCCO)ccc1Nc1cc2c(cn1)N(C)C(=O)c1ccccc1N2C [Compound 66] | ≤ 35 | < 70 | E (E is ≦35%) | > 500 | 50 to 75 | E (E is ≦35%) | ≤ 35 | – | – | – | – | – | 1330
12 | CCOc1cc(C(=O)N2CC[C@@H](N(CC)CC)C2)ccc1Nc1cc2c(cn1)N(C)C(=O)c1occc1N2C [Compound 67] | – | > 85 | – | ≤ 50 | – | – | – | ≤ 35 | E (E is ≦35%) | > 90 | E (E is ≦35%) | ≤ 35 | 920 ± 180
13 | CCOc1cc(C(=O)N[C@@H]2CCCOC2)ccc1Nc1cc2c(cn1)N(C)C(=O)c1ccccc1N2C [Compound 69] | ≤ 35 | < 70 | E (E is ≦35%) | 101 to 500 | 50 to 75 | E (E is ≦35%) | ≤ 35 | – | – | – | – | – | 1070
14 | COc1cc(C(=O)N2CCC(N(C)C)C2)ccc1Nc1cc2c(cn1)N(C)C(=O)c1ccccc1N2C (centres unmarked) [Compound 70] | – | 70 to 85 | – | ≤ 50 | – | – | – | ≤ 35 | E (E is ≦35%) | 50 to 75 | E (E is ≦35%) | ≤ 35 | 2100
15 | CCOc1cc(C(=O)N2CCCNCC2)ccc1Nc1cc2c(cn1)N(C)C(=O)c1ccccc1N2C [Compound 71] | ≤ 35 | > 85 | E (E is ≦35%) | ≤ 50 | > 90 | E (E is ≦35%) | ≤ 35 | – | – | – | – | – | 780
16 | CCOc1cc(C(=O)N2CCC(F)C2)ccc1Nc1cc2c(cn1)N(C)C(=O)c1occc1N2C (centres unmarked) [Compound 72] | – | 70 to 85 | – | ≤ 50 | – | – | – | ≤ 35 | E (E is ≦35%) | 75 to 90 | E (E is ≦35%) | ≤ 35 | 1230 ± 150
17 | COc1cc(NS(C)(=O)=O)ccc1Nc1cc2c(cn1)N(C)C(=O)c1ccccc1N2C [Compound 73] | ≤ 35 | < 70 | E (E is ≦35%) | 101 to 500 | 75 to 90 | E (E is ≦35%) | ≤ 35 | – | – | – | – | – | 1840
18 | CN1C(=O)c2ccccc2N(C)c2cc(N[C@H]3CC[C@H](N4CCCC4)CC3)ncc21 [Compound 74] | ≤ 35 | < 70 | E (E is ≦35%) | 101 to 500 | 50 to 75 | E (E is ≦35%) | ≤ 35 | – | – | – | – | – | 4960
19 | CCOc1cc(C(=O)N2CC[C@H](N(C)C)C2)ccc1Nc1cc2c(cn1)N(C)C(=O)c1ccccc1N2C [Compound 75] | ≤ 35 | > 85 | E (E is ≦35%) | ≤ 50 | > 90 | E (E is ≦35%) | ≤ 35 | – | – | – | – | – | 610
